# Data published in patent US9701689B2, “Substituted pyridines and pyridazines as CCR10 receptor inhibitors” (KYOWA HAKKO KIRIN CO., LTD., priority 2012, dated 2017).
# Biological target: T1, human CCR10 (Homo sapiens, UniProt P46092)
# T1 construct: expressed in transfected cells; host or cells: KJMGER8 cells (Namalwa cell-derived line), beta-estradiol-induced; hCCR10G16 cells
# T1 sequence (P46092 1-362): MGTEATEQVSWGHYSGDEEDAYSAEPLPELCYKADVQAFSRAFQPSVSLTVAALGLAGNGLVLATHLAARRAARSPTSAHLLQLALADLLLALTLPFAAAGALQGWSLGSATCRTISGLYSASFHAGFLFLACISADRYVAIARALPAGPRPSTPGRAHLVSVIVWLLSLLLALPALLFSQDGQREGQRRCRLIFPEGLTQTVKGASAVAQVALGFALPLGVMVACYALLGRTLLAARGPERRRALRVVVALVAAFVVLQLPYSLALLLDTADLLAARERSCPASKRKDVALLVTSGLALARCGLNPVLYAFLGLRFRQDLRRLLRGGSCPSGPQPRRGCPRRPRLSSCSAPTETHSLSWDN
# Assay: CCR10 antagonistic effect: calcium assay of human CCR10 (CTACK-induced increase of intracellular calcium in hCCR10G16 cells)
# Format: cell-based
# Conditions: at a concentration of not more than 1000 nmol/L; human CCR10-expressing hCCR10G16 cells, 300 nmol/L CTACK added; read-out: inhibition of increase in the calcium ion concentration
# Method: [Experimental Example 1] CCR10 Antagonistic Effect
# (1) Preparation of Human CCR10-Inducible Expression Plasmid
# A CCR10-inducible expression plasmid was prepared according to a known method [Analytical Biochemistry, 2006, vol. 400, page 163]. A DNA encoding human CCR10 was obtained by PCR. Using human chromosome DNA (100 ng; manufactured by Clontech) as a template, synthetic DNA having the sequences depicted in SEQ ID NOs: 1 and 2 as a human CCR10 cDNA specific primer, and Pyrobest DNA Polymerase (manufactured by TAKARA SHUZO CO. LTD.) as an enzyme, a DNA encoding human CCR10 was obtained by PCR. As a buffer for PCR, the buffer attached to the enzyme to be used, which was diluted 10-fold with deionized water, was used. Using Thermal Cycler DNA Engine (manufactured by MJ Research), PCR was performed by 35 cycles of reactions composed of an incubation at 94° C. for 30 sec, at an anneal temperature of 58° C. for 30 sec, and at 72° C. for 1 min after treating at 90° C. for 2 min.
# The amplified PCR fragment was cleaved with HindIII and NotI, then a human CCR10 DNA fragment was recovered by the agarose gel electrophoresis method. The fragment was incorporated between the corresponding restriction enzyme sites (HindIII-NotI) of an inducible expression vector to construct a human CCR10-inducible expression plasmid.
# Using a primer specific to the sequence of plasmid (synthetic DNA having the sequences shown in SEQ ID NOs: 3 and 4), the sequence of human CCR10 DNA region was determined. For the determination of the base sequence, DNA Sequencer 377 (manufactured by Perkin Elmer. Co.) and a reaction kit (ABI Prism (registered trade mark) BigDye (registered trade mark) Terminator Cycle Sequencing Ready Reaction kit: manufactured by Applied Biosystems) were used. The sequence of human CCR10 DNA was identical with the sequence (NM 016602) registered in GenBank.
# (2) Preparation of Human CCR10 Expressing Cell for Calcium Assay
# Cells for detecting signals from human CCR10 in calcium assay were prepared. According to a known method [Analytical.Biochemistry (Analy Biochem), 2006, vol. 400, page 163], human CCR10-inducible expressing cells whose host cell is KJMGER8 cell (Namalwa cell-derived cell line) were prepared. Human CCR10-inducible expression plasmid produced above and Gα16 expression plasmid were co-transfected into the KJMGER8 cells by the electroporation method [Cytotechnology, 1990, vol. 3, page 133], whereby the signals from human CCR10 could be detected by calcium assay (hereinafter to be referred to as hCCR10G16 cell). A Ga16 expression plasmid was produced by incorporating human Ga16 DNA into expression vector pAMoh (WO 03/087366). Expression of human CCR10 was induced by cultivating hCCR10G16 cells in the presence of 10 nmol/L β-estradiol (manufactured by Sigma Ltd.) for 24 hr.
# (3) Calcium Assay of Human CCR10
# Cells expressing human CCR10 induced by the above-mentioned method were suspended in RPMI1640 medium (manufactured by Invitrogen), and adjusted to a cell density of 2×10^6 cells/mL. The cells were blended with an equivalent volume of a loading buffer prepared according to the attached protocol of Fluo-3 calcium assay kit (manufactured by Molecular Devices Corporation), and incubated at 37° C. for several dozen minutes. This mixture was dispensed to a 384 well clear-bottom plate (manufactured by Corning Incorporated) at 40 μL/well. To this plate was added a solution of the test compound in dimethyl sulfoxide (DMSO), which was diluted 37-fold with RPMI1640 medium, at 5 μL/well, and the mixture was incubated at 37° C. for 30 min. 300 nmol/L human recombinant CTACK (manufactured by R&D Systems, Inc.) diluted with RPMI1640 medium containing 1 w/v % bovine serum albumin (manufactured by Sigma Ltd.) was added at 5 μL/well and, variation of intracellular calcium ion concentration for about 5 min after the addition was measured by a screening apparatus (FDSS; manufactured by Hamamatsu Photonics K.K.). […]
row,inhibition at up to 1 µM [%],Structure (SMILES)
1,≥ 50,"Cc1ccc(C)c(Nc2cc(S(N)(=O)=O)ncc2C(=O)N2CCC(c3ccc(F)cc3)CC2)c1 [Compound 53, 4-(2,5-dimethylphenylamino)-5-[4-(4-fluorophenyl)piperidine-1-carbonyl]pyridine-2-sulfonamide]"
2,≥ 50,"Cc1ccc(Nc2cc(S(N)(=O)=O)ncc2C(=O)N2CCC(c3ccc(F)cc3)CC2)c(C)c1 [Compound 55, 4-(2,4-dimethylphenylamino)-5-[4-(4-fluorophenyl)piperidine-1-carbonyl]pyridine-2-sulfonamide]"
3,≥ 50,"Cc1c(Cl)cccc1Nc1cc(S(N)(=O)=O)ncc1C(=O)N1CCC(c2ccc(F)cc2)CC1 [Compound 57, 4-(3-chloro-2-methylphenylamino)-5-[4-(4-fluorophenyl)piperidine-1-carbonyl]pyridine-2-sulfonamide]"
4,≥ 50,"Cc1c(F)cccc1Nc1cc(S(N)(=O)=O)ncc1C(=O)N1CCC(c2ccc(F)cc2)CC1 [Compound 60, 4-(3-fluoro-2-methylphenylamino)-5-[4-(4-fluorophenyl)piperidine-1-carbonyl]pyridine-2-sulfonamide]"
5,≥ 50,"Cc1c(Nc2cc(S(N)(=O)=O)ncc2C(=O)N2CCC(c3ccc(F)cc3)CC2)cccc1C(F)(F)F [Compound 61, 5-[4-(4-fluorophenyl)piperidine-1-carbonyl]-4-[2-methyl-3-(trifluoromethyl)phenylamino]pyridine-2-sulfonamide]"
6,≥ 50,"Cc1cccc(Nc2cc(S(N)(=O)=O)ncc2C(=O)N2CCC(c3ccc(F)cc3)CC2)c1C [Compound 65, 4-(2,3-dimethylphenylamino)-5-[4-(4-fluorophenyl)piperidine-1-carbonyl]pyridine-2-sulfonamide]"

# More lines, now with the values behind:
row,Structure (SMILES),inhibition at up to 1 µM [%]
1,"Cc1cc(Nc2cc(S(N)(=O)=O)ncc2C(=O)N2CCC(c3ccc(F)cc3)CC2)c(Cl)cc1Cl [Compound 51, 4-(2,4-dichloro-5-methylphenylamino)-5-[4-(4-fluorophenyl)piperidine-1-carbonyl]pyridine-2-sulfonamide]",≥ 50
2,"Cc1cc(Nc2cc(S(N)(=O)=O)ncc2C(=O)N2CCC(c3ccc(F)cc3)CC2)c(Cl)cc1F [Compound 52, 4-(2-chloro-4-fluoro-5-methylphenylamino)-5-[4-(4-fluorophenyl)piperidine-1-carbonyl]pyridine-2-sulfonamide]",≥ 50
3,"Cc1ccc(Nc2cc(S(N)(=O)=O)ncc2C(=O)N2CCC(c3ccc(F)cc3)CC2)c(F)c1 [Compound 56, 4-(2-fluoro-4-methylphenylamino)-5-[4-(4-fluorophenyl)piperidine-1-carbonyl]pyridine-2-sulfonamide]",≥ 50
4,"Cc1ccc(Nc2cc(S(N)(=O)=O)ncc2C(=O)N2CCC(c3ccc(F)cc3)CC2)c(Cl)c1 [Compound 58, 4-(2-chloro-4-methylphenylamino)-5-[4-(4-fluorophenyl)piperidine-1-carbonyl]pyridine-2-sulfonamide]",≥ 50
5,"Cc1c(Nc2cc(S(N)(=O)=O)ncc2C(=O)N2CCC(c3ccc(F)cc3)CC2)ccc(Cl)c1F [Compound 59, 4-(4-chloro-3-fluoro-2-methylphenylamino)-5-[4-(4-fluorophenyl)piperidine-1-carbonyl]pyridine-2-sulfonamide]",≥ 50
6,"Cc1ccc(F)cc1Nc1cc(S(N)(=O)=O)ncc1C(=O)N1CCC(c2ccc(F)cc2)CC1 [Compound 62, 4-(5-fluoro-2-methylphenylamino)-5-[4-(4-fluorophenyl)piperidine-1-carbonyl]pyridine-2-sulfonamide]",≥ 50
7,"Cc1ccc(Nc2cc(S(N)(=O)=O)ncc2C(=O)N2CCC(c3ccc(F)cc3)CC2)cc1F [Compound 64, 4-(3-fluoro-4-methylphenylamino)-5-[4-(4-fluorophenyl)piperidine-1-carbonyl]pyridine-2-sulfonamide]",≥ 50
